These results are taken from patent publication US20180282323A1, “Mesoionic imidazole derivatives as insecticides” (BAYER CROPSCIENCE AKTIENGESELLSCHAFT, priority 2015, published 2018).

Like-named read-outs stand apart in the source and are kept apart here.

A short description of series [1]: log P by HPLC on reversed-phase column (EEC directive 79/831 Annex V.A8). The class given is physicochemical. To be noted: for log p a): HPLC on reversed-phase column; for log p: HPLC on reversed-phase column (footnote a). An outline of the steps: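 Reversed-phase (C18) HPLC at 43° C, following EEC directive 79/831 Annex V.A8.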
Series [2] has as its system Diabrotica balteata. The series is described as follows: Diabrotica balteata spray test. The class given is in vivo. To be noted: application rate 160 μg/well, wheat grains with beetle larvae, after 7 days. The method, then: Diabrotica balteata—Spray Test Solvent: 78 parts by weight of acetone • • 1.5 parts by weight of dimethylformamide Emulsifier: alkylaryl polyglycol ether
(§1) To produce a suitable active ingredient formulation, 1 part by weight of active ingredient is dissolved with the stated parts by weight of solvent and made up with water containing an emulsifier concentration of 1000 ppm until the desired concentration is attained. To produce further test concentrations, the formulation is diluted with emulsifier-containing water.
Pre-swollen wheat grains (Triticum aestivum) are incubated in a multiwell plate filled with agar and a little water for one day (5 seed grains per cavity). The germinated wheat grains are sprayed with an active ingredient formulation of the desired concentration. Subsequently, each cavity is infected with 10-20 beetle larvae of Diabrotica balteata.
After 7 days, the efficacy in % is determined. 100% means that all wheat plants have grown as in the untreated, uninfected control; 0% means that no wheat plant has grown.

For series [3], the system named is Myzus persicae. Briefly: Myzus persicae spray test (Chinese cabbage leaf discs). The class given is in vivo. The following applies: application rate 500 g/ha, after 6 days. The method, then:
Myzus persicae—Spray Test Solvent: 78 parts by weight of acetone • • 1.5 parts by weight of dimethylformamide Emulsifier: alkylaryl polyglycol ether
as §1
Discs of Chinese cabbage leaves (Brassica pekinensis) infested by all stages of the green peach aphid (Myzus persicae) are sprayed with an active ingredient formulation of the desired concentration.
After 6 days, the efficacy in % is determined. 100% means that all the aphids have been killed; 0% means that no aphids have been killed.

Series [4] has as its system Myzus persicae. The series is described as follows: Myzus persicae oral test. The class given is in vivo. The following applies: application rate 20 ppm, oral uptake through parafilm, after 5 days. An outline of the steps:
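Oral feeding format: mixed-stage Myzus persicae imbibe acetone/water compound formulation in sugared IPL41 medium through parafilm. Efficacy assessed as percent aphids killed at day 5.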

For the compound `Cc1ccc[n+]2c(C(=O)NC3CC3)c([O-])n(C(C)c3cnc(Cl)s3)c12` (stereo not drawn) [Example I-1-290], the “log p a)” value in series [1] is 2.2. Besides, the efficacy in series [2] was 100%.
Take `CCCNC(=O)c1c([O-])n(Cc2cnc(Cl)s2)c2c(C)ccc[n+]12` [Example I-1-267]: in series [1], the “log p a)” value is 2.26. Besides, the efficacy in series [3] came to 90%; in series [2], 100%.
On to `CC(c1ccc(Cl)nc1)n1c([O-])c(C(=O)Nc2cccc(C(F)(F)F)c2)[n+]2ccccc12` (stereo not drawn) [Example I-1-238], for which the “log p a)” value in series [1] came to 3.72. The same compound came in with an efficacy in series [2] of 80%.
For `Cc1ccc[n+]2c(C(=O)Nc3c(F)cccc3F)c([O-])n(Cc3cnc(Cl)s3)c12` [Example I-1-291], in that order: 3.07 and 80%.
In series [1], `CCCNC(=O)c1c([O-])n(Cc2cnc(Cl)s2)c2cccc[n+]12` [Example I-1-129] registered a log p of 1.98. Besides, the efficacy in series [2] and in series [4] was 100% each time.
With `Cc1ccc[n+]2c(C(=O)Nc3c(F)cccc3F)c([O-])n(C(C)c3cnc(Cl)s3)c12` (stereo not drawn) [Example I-1-288], the “log p a)” value in series [1] is on record as 2.76. In addition, the efficacy in series [2] and in series [4] was 100% in each case.
For `CCCNC(=O)c1c([O-])n(C(C)c2ccc(Cl)nc2)c2c(C)ccc[n+]12` (racemic) [Example I-1-258], the “log p a)” value in series [1] is reported as 2.23. For the same compound, the efficacy in series [2] is recorded as 80%.
For `O=C(Nc1ccc(F)cc1F)c1c([O-])n(Cc2cnc(Cl)s2)c2cccc[n+]12` [Example I-1-232], the “log p a)” value in series [1] was 3.13. In addition, the efficacy stood at 100% in series [2] and 90% in series [4].
In the case of `Cc1ccc[n+]2c(C(=O)Nc3cccc(C(F)(F)F)c3)c([O-])n(Cc3cnc(Cl)s3)c12` [Example I-1-216], the “log p a)” value in series [1] is 4.06. For the same compound, the efficacy in series [2] and in series [4] was 100% each time.
For `COCC(=O)c1c([O-])n(Cc2cncnc2)c2cccc[n+]12` [Example I-1-023], the log p in series [1] is reported as 0.4. For the same compound, the efficacy in series [3] and in series [4] was 100% in each case.
In turn, `COC(=O)c1c([O-])n(Cc2ccc(Cl)nc2)c2cccc[n+]12` [Example I-1-101] yielded a log p in series [1] of 1.18. Besides, the values for the efficacy in series [3] and in series [4] were 90% and 100%, respectively.
`CNC(=O)c1c([O-])n(Cc2cnc(Cl)s2)c2cccc[n+]12` [Example I-1-128] returned a log p in series [1] of 1.31. The efficacy in series [2] is 100%.
`Cc1cccc(Cl)c1NC(=O)c1c([O-])n(Cc2cnc(Cl)s2)c2cccc[n+]12` [Example I-1-304]: the “log p a)” value in series [1] was 2.8. Moreover, the efficacy in series [3] and in series [4] was 100% in each case.
For `Cc1ccc[n+]2c(C(=O)CCl)c([O-])n(Cc3cnc(Cl)s3)c12` [Example I-1-081], the log p in series [1] is 1.98. The efficacy in series [3] and in series [4] was 100% in each case.
Take `Cc1ccn(CC(=O)c2c([O-])n(Cc3cnc(Cl)s3)c3c(C)ccc[n+]23)n1` [Example I-1-092]: the log p in series [1] stood at 1.84. Moreover, the figures for the efficacy in series [3] and in series [4] were 90% and 100%, respectively.
The matching figures for `CCOCC(=O)c1c([O-])n(Cc2cnc(Cl)s2)c2ccc(F)c[n+]12` [Example I-1-112]: 1.58, 90% and 100%.
As to `O=C(Nc1c(F)cccc1F)c1c([O-])n(Cc2ccc(Cl)nc2)c2cccc[n+]12` [Example I-1-313], the “log p a)” value in series [1] is 2.27. In addition, the efficacy was found to be 90% in series [3] and 100% in series [4].
As for `CC(C)OCC(=O)c1c([O-])n(Cc2cnc(Cl)s2)c2cccc[n+]12` [Example I-1-026, 1-[(2-chloro-1,3-thiazol-5-yl)methyl]-3-(isopropoxyacetyl)-1H-imidazo[1,2-a]pyridin-4-ium-2-olate], the chromatographic logP in series [1] was found to be 1.73; in series [1] (pH 2.7) it was 1.8. Besides, in series [3], the efficacy came to 100%. The pest or weed control at 20 ppm in series [4] (Myzus persicae, 120 h, read-out: efficacy) was determined as 100%.
Consider `O=C(Nc1cccc(OC(F)(F)F)c1)c1c([O-])n(Cc2cnc(Cl)s2)c2cccc[n+]12` [Example I-1-230], for which the “log p a)” value in series [1] was found to be 3.87. Moreover, in series [2], the efficacy turned out to be 100%.
In series [1], `O=C(COCc1ccccc1)c1c([O-])n(Cc2cnc(Cl)s2)c2cccc[n+]12` [Example I-1-041] had a log p of 2.35. In addition, the efficacy in series [2] is recorded as 80%; in series [4], 100%.
In the case of `Cc1ccc[n+]2c(C(=O)COCC(F)(F)F)c([O-])n(Cc3cnc(Cl)s3)c12` [Example I-1-297], in series [1], the “log p a)” value is given as 2.34. Besides, the efficacy in series [3] is 90%; in series [4] it was 100%.
For `O=C(Cn1nccn1)c1c([O-])n(Cc2cnc(Cl)s2)c2cccc[n+]12` [Example I-1-068], in series [1], the log p was determined as 1.41. In addition, the efficacy in series [3] and in series [4] was 100% each time.
The compound `O=C(NCc1ccccc1)c1c([O-])n(Cc2cnc(Cl)s2)c2cccc[n+]12` [Example I-1-148] returned a log p in series [1] of 2.41. The efficacy in series [2] and in series [4] was 100% in each case.
Turning to `N#Cc1cccnc1NC(=O)c1c([O-])n(Cc2cnc(Cl)s2)c2cccc[n+]12` [Example I-1-310], the “log p a)” value in series [1] is listed as 1.75. In addition, the efficacy stood at 90% in series [3] and 100% in series [4].
For `COC(=O)c1c([O-])n(C(C)c2cnc(Cl)s2)c2c(C)ccc[n+]12` (stereo not drawn) [Example I-1-287], in series [1], the “log p a)” value came to 1.68. In addition, the efficacy is given as 80% in series [2] and 100% in series [4].
With `Cc1ccc[n+]2c(C(=O)NC3CC3)c([O-])n(Cc3cnc(Cl)s3)c12` [Example I-1-203], in series [1], the “log p a)” value is 1.93. In addition, the efficacy in series [2] and in series [4] was 100% in each case.
`CCCNC(=O)c1c([O-])n(Cc2cnc(Cl)cn2)c2cccc[n+]12` [Example I-1-279]: in series [1], the “log p a)” value was determined as 1.81. Also, the efficacy was found to be 90% in series [3] and 100% in series [4].
For `O=C(Cn1cc(Cl)cn1)c1c([O-])n(Cc2cnc(Cl)s2)c2cccc[n+]12` [Example I-1-010], the log p in series [1] is 2.09. For the same compound, the efficacy in series [3] is 90%; in series [4], 100%.
In series [1], `CSCC(=O)c1c([O-])n(Cc2ccc(Cl)nc2)c2cccc[n+]12` [Example I-1-005] registered a log p of 1.62. Also, the efficacy in series [3] worked out at 90%; in series [4] it was 100%.
`Cn1nccc1OCC(=O)c1c([O-])n(Cc2cnc(Cl)s2)c2cccc[n+]12` [Example I-1-086]: the log p in series [1] was determined as 1.53. The efficacy in series [3] and in series [4] was 100% throughout.
`C[S+]([O-])CC(=O)c1c([O-])n(Cc2ccc(Cl)nc2)c2cccc[n+]12` (stereo not drawn) [Example I-1-022] returned a log p in series [1] of 0.91. Also, the efficacy in series [3] and in series [4] was 100% in each case.
As for `Cn1nccc1NC(=O)c1c([O-])n(Cc2ccc(Cl)nc2)c2cccc[n+]12` [Example I-1-325], the “log p a)” value in series [1] is 1.49. Moreover, the efficacy in series [3] is reported as 90%; in series [4], 100%.
`Cc1ccnc(Cl)c1NC(=O)c1c([O-])n(Cc2cnc(Cl)s2)c2cccc[n+]12` [Example I-1-309]: the “log p a)” value in series [1] was determined as 2.03. Further, the efficacy in series [3] and in series [4] was 100% in each case.
With `O=C(Nc1cccc(C(F)(F)F)c1)c1c([O-])n(Cc2cnc(Cl)s2)c2cccc[n+]12` [Example I-1-233], in series [1], the “log p a)” value was 3.76. Moreover, in series [2], the efficacy is listed as 80%.
On to `Cc1cccc(NC(=O)c2c([O-])n(Cc3cnc(Cl)s3)c3cccc[n+]23)c1` [Example I-1-235], for which the “log p a)” value in series [1] is reported as 3.21. Also, the efficacy amounted to 100% in series [2] and 90% in series [4].
On to `CC(=O)Nc1ccn(CC(=O)c2c([O-])n(Cc3cnc(Cl)s3)c3cccc[n+]23)n1` [Example I-1-056], for which, in series [1], the log p came out at 1.21. Also, the efficacy in series [3] and in series [4] was 90% in each case.
As to `Cc1ccc[n+]2c(C(=O)Nc3ncccc3F)c([O-])n(Cc3cnc(Cl)s3)c12` [Example I-1-274], in series [1], the “log p a)” value was 1.78. For the same compound, the efficacy in series [3] worked out at 90%; in series [4], 100%.
`O=C(NC1CCC1)c1c([O-])n(Cc2cnc(Cl)s2)c2cccc[n+]12` [Example I-1-135]: the log p in series [1] amounted to 2.11. In addition, the figures for the efficacy in series [2] and in series [4] were 80% and 90%, respectively.

A word on the chromatographic logP: it is a lipophilicity value derived from retention on a column. A higher chromatographic logP goes with higher lipophilicity.
